Each compound was assayed against D(2) dopamine receptor (Mus musculus, UniProt P61168).
Chain of D(2) dopamine receptor (P61168 whole entry): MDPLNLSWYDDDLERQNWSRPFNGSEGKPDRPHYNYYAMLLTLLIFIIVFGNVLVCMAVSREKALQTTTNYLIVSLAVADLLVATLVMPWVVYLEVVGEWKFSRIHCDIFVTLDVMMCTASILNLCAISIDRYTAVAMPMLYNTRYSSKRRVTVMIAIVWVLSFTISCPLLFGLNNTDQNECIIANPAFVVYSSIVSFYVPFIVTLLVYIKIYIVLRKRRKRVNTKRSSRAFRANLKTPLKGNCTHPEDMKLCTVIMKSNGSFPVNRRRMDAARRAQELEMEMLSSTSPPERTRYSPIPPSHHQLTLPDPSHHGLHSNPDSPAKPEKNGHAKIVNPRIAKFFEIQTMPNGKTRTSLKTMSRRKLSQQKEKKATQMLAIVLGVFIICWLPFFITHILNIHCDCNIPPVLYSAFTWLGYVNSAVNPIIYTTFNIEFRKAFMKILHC
`CCN1CCCC1CNC(=O)c1cc(S(N)(=O)=O)ccc1OC` (configuration not stated) [N-[(1-ethylpyrrolidin-2-yl)methyl]-2-methoxy-5-sulfamoylbenzamide] showed a Ki of 14.4 nM. Work on `OCCN1CCN(CC/C=C2/c3ccccc3Sc3ccc(C(F)(F)F)cc32)CC1` [(cis) 2-{4-[3-(2-Trifluoromethyl-thioxanthen-9-ylidene)-propyl]-piperazin-1-yl}-ethanol(Flupentixol)] yielded a Ki of 0.48 nM. `CCN1CCC[C@H]1CNC(=O)c1cc(I)cc(OC)c1OC` was tested, and the Ki was 0.05 nM. Work on `O=C(O)c1ccccc1C(=O)Nc1cccc2ccccc12` [NPA,(+)] yielded a Ki of 7.07 nM. Work on `CCCN1CCCC(c2cccc(O)c2)C1` (configuration not stated) [CAS_85976-54-1] yielded a Ki of 5620 nM. `O=c1[nH]c2ccccc2n1C1CCN(CCCC(c2ccc(F)cc2)c2ccc(F)cc2)CC1` [1-(1-(4,4-bis(4-fluorophenyl)butyl)piperidin-4-yl)-1H-benzo[d]imidazol-2(3H)-one] was tested, and the Ki was 0.19 nM. Compound `CC(C)C[C@H]1C(=O)N2CCC[C@H]2[C@]2(O)O[C@](NC(=O)[C@@H]3C=C4c5cccc6[nH]c(Br)c(c56)C[C@H]4N(C)C3)(C(C)C)C(=O)N12` [Bromocriptine+ (GTP+)] has a Ki of 0.69 nM.

— BindingDB's records for PubMed 2017157 (Medical Research Service, 1991)
